The values that follow come from the supplement of paper PMC10307832.

Holding throughout (experiment): relative viability (nuclei count vs DMSO), 5 days (fraction); higher = more cells survive
Compound in the assay “Bortezomib + Phenformin”: CC(C)C[C@H](NC(=O)[C@H](Cc1ccccc1)NC(=O)c1cnccn1)B(O)O [Bortezomib] + N=C(N)NC(=N)NCCc1ccccc1 [Phenformin] (partner 250 µM)
Put shortly:
(§1)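 Relative viability is defined as nuclei in treated wells over nuclei in vehicle wells. Duplicate plates were run and medians reported. Lung cancer cell lines in 1536-well plates were dosed by pin tool one day after seeding, with one drug or with a fixed anchor-drug dose plus five library-drug doses (not always all listed) in √10 steps, and nuclei were counted after 5 days.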

Compound in assay [1]: CC1=CC(=NN1)NC2=CC(=NC(=N2)/C=C/C3=CC=CC=C3)N4CCN(CC4)C + Cc1nc(NC(=O)N2CCC[C@H]2C(N)=O)sc1-c1ccnc(C(C)(C)C(F)(F)F)c1 [Alpelisib] (partner 2 µM)
Put shortly:
as §1

Compound in the assay “Obatoclax + Linsitinib”: COC1=CC(c2cc3ccccc3[nH]2)=N/C1=C\c1[nH]c(C)cc1C [Obatoclax] + C[C@]1(O)C[C@@H](c2nc(-c3ccc4ccc(-c5ccccc5)nc4c3)c3c(N)nccn32)C1 [Linsitinib] (partner 1 µM)
In a few lines:
as §1

Compound in the assay “Obatoclax + Vorinostat”: COC1=CC(c2cc3ccccc3[nH]2)=N/C1=C\c1[nH]c(C)cc1C [Obatoclax] + O=C(CCCCCCC(=O)Nc1ccccc1)NO [Vorinostat] (partner 1 µM)
Put shortly:
as §1

NCI-H650: the relative viability worked out at 0.431 in the assay with Bortezomib + Phenformin (first compound 0.000632 µM); 0.461 with Bortezomib + Phenformin (first compound 0.002 µM); 0.38 with Bortezomib + Phenformin (first compound 0.006325 µM); 0.203 with Bortezomib + Phenformin (first compound 0.02 µM); 1.12 in assay [1] (first compound 0.08 µM); 1.19 in assay [1] (first compound 0.253 µM). The relative viability in assay [1] (first compound 0.8 µM) came to 1.03; in assay [1] (first compound 2.53 µM) it was 0.811; in assay [1] (first compound 8 µM) it was 0.171; in the assay with Obatoclax + Linsitinib (first compound 0.01 µM) it was 0.874; with Obatoclax + Linsitinib (first compound 0.03162 µM), 0.757; with Obatoclax + Linsitinib (first compound 0.1 µM) it was 0.329. The relative viability in the assay with Obatoclax + Linsitinib (first compound 0.3162 µM) was 0.528; with Obatoclax + Linsitinib (first compound 1 µM), 0.425; in the assay with Obatoclax + Vorinostat (first compound 0.01 µM), 0.439; with Obatoclax + Vorinostat (first compound 0.03162 µM), 0.444; with Obatoclax + Vorinostat (first compound 0.3162 µM), 0.418; with Obatoclax + Vorinostat (first compound 1 µM) it was 0.384.
